Patent US11331369B2, “Endoparasitic depsipeptides” (Zoetis Services LLC, priority 2017, dated 2022)

How the values were obtained:
Format in all cases: cell-based
[1] = test system: microfilariae of Dirofilaria immitis; assay: Dirofilaria immitis, Microfilaria (DiMF) In vitro Assay; conditions: 72 h, read-out: DiMF Minimum Effective Dose (MED), approximately 72 hours incubation, microfilariae assessed for survival or paralysis
[2] = test system: 4th stage larvae (L4) of Dirofilaria immitis; assay: Dirofilaria immitis, L4 Stage (DiL4) In Vitro Assay; conditions: Dirofilaria immitis, 72 h, read-out: DiL4 Minimum Effective Dose (MED), approximately 72 hours incubation; L4 larvae assessed for survival or paralysis
[3] = test system: third stage larvae of Haemonchus contortus; assay: Haemonchus contortus L3 (HcL3) Assay; conditions: 96 h, read-out: HcL3 Minimum Effective Dose (MED)

Structure (SMILES)	minimal effective concentration [1] [µM]	minimal effective concentration [2] [µM]	minimal effective concentration [3] [µM]
CC(C)C[C@H]1C(=O)O[C@H](Cc2ccc(Cn3nccc3C3(C)CC3)cc2)C(=O)N(C)[C@@H](CC(C)C)C(=O)O[C@H](C)C(=O)N(C)[C@@H](CC(C)C)C(=O)O[C@H](Cc2ccc(Cn3nccc3C3(C)CC3)cc2)C(=O)N(C)[C@@H](CC(C)C)C(=O)O[C@H](C)C(=O)N1C [Example 1b-219, (3S,6R,9S,12R,15S,18R,21S,24R)-3,9,15,21-tetraisobutyl-4,6,10,16,18,22-hexamethyl-12,24-bis(4-((5-(1-methylcyclopropyl)-1H-pyrazol-1-yl)methyl)benzyl)-1,7,13,19-tetraoxa-4,10,16,22-tetraazacyclotetracosan-2,5,8,11,14,17,20,23-octaone]	0.01 to 0.1	0.0001 to 0.001	≤ 1
COC(C)(C)c1ccnn1Cc1ccc(C[C@H]2OC(=O)[C@H](CC(C)C)N(C)C(=O)[C@@H](C)OC(=O)[C@H](CC(C)C)N(C)C(=O)[C@@H](Cc3ccc(Cn4nccc4C(C)(C)OC)cc3)OC(=O)[C@H](CC(C)C)N(C)C(=O)[C@@H](C)OC(=O)[C@H](CC(C)C)N(C)C2=O)cc1 [Example 1b-220, (3S,6R,9S,12R,15S,18R,21S,24R)-3,9,15,21-tetraisobutyl-6,18-bis(4-((5-(2-methoxypropan-2-yl)-1H-pyrazol-1-yl)methyl)benzyl)-4,10,12,16,22,24-hexamethyl-1,7,13,19-tetraoxa-4,10,16,22-tetraazacyclotetracosan-2,5,8,11,14,17,20,23-octaone]	0.001 to 0.01	0.001 to 0.01	10 to 100
CC(C)C[C@H]1C(=O)O[C@H](Cc2ccc(Cn3nccc3C3(C)COC3)cc2)C(=O)N(C)[C@@H](CC(C)C)C(=O)O[C@H](C)C(=O)N(C)[C@@H](CC(C)C)C(=O)O[C@H](Cc2ccc(Cn3nccc3C3(C)COC3)cc2)C(=O)N(C)[C@@H](CC(C)C)C(=O)O[C@H](C)C(=O)N1C [Example 1b-221, (3S,6R,9S,12R,15S,18R,21S,24R)-3,9,15,21-tetraisobutyl-4,6,10,16,18,22-hexamethyl-12,24-bis(4-((5-(3-methyloxetan-3-yl)-1H-pyrazol-1-yl)methyl)benzyl)-1,7,13,19-tetraoxa-4,10,16,22-tetraazacyclotetracosan-2,5,8,11,14,17,20,23-octaone]	0.001 to 0.01	0.001 to 0.01	1 to 10
CC(C)C[C@H]1C(=O)O[C@H](Cc2ccc(Cn3nccc3C3CC3C)cc2)C(=O)N(C)[C@@H](CC(C)C)C(=O)O[C@H](C)C(=O)N(C)[C@@H](CC(C)C)C(=O)O[C@H](Cc2ccc(Cn3nccc3C3CC3C)cc2)C(=O)N(C)[C@@H](CC(C)C)C(=O)O[C@H](C)C(=O)N1C (stereo partly drawn) [Example 1b-222, (3S,6R,9S,12R,15S,18R,21S,24R)-3,9,15,21-tetraisobutyl-4,6,10,16,18,22-hexamethyl-12,24-bis(4-((5-(2-methylcyclopropyl)-1H-pyrazol-1-yl)methyl)benzyl)-1,7,13,19-tetraoxa-4,10,16,22-tetraazacyclotetracosan-2,5,8,11,14,17,20,23-octaone]	0.01 to 0.1	0.0001 to 0.001	≤ 1
CC(C)C[C@H]1C(=O)O[C@H](Cc2ccc(C3(n4cc(Cl)cn4)CCC3)cc2)C(=O)N(C)[C@@H](CC(C)C)C(=O)O[C@H](C)C(=O)N(C)[C@@H](CC(C)C)C(=O)O[C@H](Cc2ccc(C3(n4cc(Cl)cn4)CCC3)cc2)C(=O)N(C)[C@@H](CC(C)C)C(=O)O[C@H](C)C(=O)N1C [Example 1c-2, (3S,6R,9S,12R,15S,18R,21S,24R)-6,18-bis(4-(1-(4-chloro-1H-pyrazol-1-yl)cyclobutyl)benzyl)-3,9,15,21-tetraisobutyl-4,10,12,16,22,24-hexamethyl-1,7,13,19-tetraoxa-4,10,16,22-tetraazacyclotetracosan-2,5,8,11,14,17,20,23-octaone]	0.001 to 0.01	≤ 0.0001	≤ 1
CC(C)C[C@H]1C(=O)O[C@H](Cc2ccc(C(C3CC3)n3cc(OC(C)C)cn3)cc2)C(=O)N(C)[C@@H](CC(C)C)C(=O)O[C@H](C)C(=O)N(C)[C@@H](CC(C)C)C(=O)O[C@H](Cc2ccc(C(C3CC3)n3cc(OC(C)C)cn3)cc2)C(=O)N(C)[C@@H](CC(C)C)C(=O)O[C@H](C)C(=O)N1C (stereo partly drawn) [Example 1c-5, (3S,6R,9S,12R,15S,18R,21S,24R)-6,18-bis(4-(cyclopropyl(4-isopropoxy-1H-pyrazol-1-yl)methyl)benzyl)-3,9,15,21-tetraisobutyl-4,10,12,16,22,24-hexamethyl-1,7,13,19-tetraoxa-4,10,16,22-tetraazacyclotetracosan-2,5,8,11,14,17,20,23-octaone]	0.001 to 0.01	0.0001 to 0.001	≤ 1
CC(C)C[C@H]1C(=O)O[C@H](Cc2ccc(Cn3cc(Br)cn3)cc2)C(=O)N(C)[C@@H](CC(C)C)C(=O)O[C@H](C)C(=O)N(C)[C@@H](CC(C)C)C(=O)O[C@H](Cc2ccccc2)C(=O)N(C)[C@@H](CC(C)C)C(=O)O[C@H](C)C(=O)N1C [Example 2-22, (3S,6R,9S,12R,15S,18R,21S,24R)-6-benzyl-18-(4-((4-bromo-1H-pyrazol-1-yl)methyl)benzyl)-3,9,15,21-tetraisobutyl-4,10,12,16,22,24-hexamethyl-1,7,13,19-tetraoxa-4,10,16,22-tetraazacyclotetracosan-2,5,8,11,14,17,20,23-octaone]	0.001 to 0.01	0.0001 to 0.001	1 to 10
CC(C)C[C@H]1C(=O)O[C@H](Cc2ccc(Cn3cc(F)cn3)cc2)C(=O)N(C)[C@@H](CC(C)C)C(=O)O[C@H](C)C(=O)N(C)[C@@H](CC(C)C)C(=O)O[C@H](Cc2ccccc2)C(=O)N(C)[C@@H](CC(C)C)C(=O)O[C@H](C)C(=O)N1C [Example 2-28, (3S,6R,9S,12R,15S,18R,21S,24R)-6-benzyl-18-(4-((4-fluoro-1H-pyrazol-1-yl)methyl)benzyl)-3,9,15,21-tetraisobutyl-4,10,12,16,22,24-hexamethyl-1,7,13,19-tetraoxa-4,10,16,22-tetraazacyclotetracosan-2,5,8,11,14,17,20,23-octaone]	0.001 to 0.01	0.0001 to 0.001	1 to 10
C#Cc1cnn(Cc2ccc(C[C@H]3OC(=O)[C@H](CC(C)C)N(C)C(=O)[C@@H](C)OC(=O)[C@H](CC(C)C)N(C)C(=O)[C@@H](Cc4ccccc4)OC(=O)[C@H](CC(C)C)N(C)C(=O)[C@@H](C)OC(=O)[C@H](CC(C)C)N(C)C3=O)cc2)c1 [Example 2-51, (3S,6R,9S,12R,15S,18R,21S,24R)-6-benzyl-18-(4-((4-ethynyl-1H-pyrazol-1-yl)methyl)benzyl)-3,9,15,21-tetraisobutyl-4,10,12,16,22,24-hexamethyl-1,7,13,19-tetraoxa-4,10,16,22-tetraazacyclotetracosan-2,5,8,11,14,17,20,23-octaone]	0.001 to 0.01	0.0001 to 0.001	1 to 10
